Measurements from patent US11904051B2, “Shear stress sensitive liposomes” (Universität Basel, priority 2018, dated 2024).
Values joined by “and” are separate entries in the source; they are usually repeats but may differ in a detail not shown here. Equal entries are not always repeated.

How the values were obtained:
[1] = Release experiments with 5(6)-carboxyfluorescein-loaded large unilamellar vesicles (LUVET100), spontaneous and vortex-triggered; assay type: physicochemical; conditions: for release at 37° C. without vortexing: without vortexing/shaking; for Release at RT after 60 s vortex / Release 37° C. after 60 s vortex: mechanically induced release, 60 s vortexing; for Release at RT after 60 s vortex / Release at RT after 7 days: 22° C. (RT); for Release at RT after 7 days: spontaneous release of 5(6)-carboxyfluorescein
Source text: FIG. 8 Release experiments using 5(6)-carboxyfluorescein-loaded large unilamellar vesicles comprising 1,3-diheptadecanamidopropan-2-yl (2-(trimethylammonio) ethyl) phosphate (4) obtained via extrusion through a 100 nm track-edged filter membrane (LUVET100). Triggered release was induced by shaking the samples for a specific amount of time on a vortex-shaker.
Previously the inventors reported the 5(6)-carboxyfluorescein release from vesicles containing 1,3-palmitoylamido-1,3-deoxy-sn-glycero-2-phosphatidylcholine (2) (Holme et al., Nat. Nanotechnol. 2012, 7, 536-543). […] Increasing the Tm promises improved release properties. […] This leads to a lower leakage of the vesicles at 22° C. (room temperature) as well as 37° C. (average human body temperature) (FIG. 8). A prolongation if the acyl chain to the artificial C18 phospholipid 1,3-stearoylamido-1,3-deoxy-sn-glycero-2-phosphatidylcholine leads to an increased Tm of 52° C., but this phospholipid forms almost no liposomes anymore.
Each sample was treated with Triton X-100 to induce a full release of 5(6)-carboxy fluorescein.
Large unilamellar vesicles with a diameter of 100 nm (LUVET100) of the 1,3-diheptadecanamidopropan-2-yl (2-(trimethylammonio) ethyl) phosphate (4) were prepared following the extrusion protocol: in a 25 ml round bottom flask, 10 mg of the lipid was dissolved in CH2Cl2. After evaporation of the organic solvent, the film was further dried under high vacuum (40 mbar) overnight. Then the film was hydrated with the internal buffer for 30 min (1 ml, 50 mM 5(6)-carboxyfluorescein, 10 mM HEPES buffer (AppliChem), 10 mM NaCl dissolved in pure water, pH 7.4). Now at least 5 freeze-thaw cycles (liquid N2 to 65° C.) were carried out before the suspension was extruded 11 times using a Mini Extruder (Avanti Polar Lipids, USA) using track-edged filters with a mesh size of 100 nm (Whatman, USA). The external buffer was then exchanged on a size exclusion column (1.5×20 cm Sephadex G-50 column) in external buffer (107 mM NaCl dissolved in ultrapure water, 10 mM HEPES, pH 7.4).

[2] = Differential scanning calorimetry, main phase transition of vesicle membranes; assay type: physicochemical; conditions: for Tm: main phase transition temperature of liposome membrane
Source text: Interdigitation of membrane leaflets also influences the membranes main-phase transition temperature. […] Also, the value for the bilayer main-phase transition temperature is 11.5 K higher than the calculated critical temperature from the monolayer experiments, where no interdigitation is possible.

[3] = Small-angle neutron scattering (SANS) of liposomes as a function of temperature; assay type: physicochemical; set-up: key to Eccentricity: ε = c/R axis ratio; <1 oblate, 1 spherical, >1 prolate
Source text: In order to determine the structural parameters, including the bilayer thickness of the selected liposomal formulations, a suitable model for data fitting has to be identified. […] The structure factor was fitted using the sticky hard sphere model (Baxter et al., The Journal of Chemical Physics 1968, 49 (6), 2770-2774; Mays, Langmuir 1989, 5, 422-428). In order to adjust the form factor to the overall shape of the liposomes, an ellipsoidal shell model with a homogeneous cross-section (Guinier, Annales de Physique, 1939; pp 161-237) was applied. The elliptical shell model is defined by three orthogonal axes with lengths a=R, b=R and c=εR, along with eccentricity ε>0, (ε<1: oblate, ε=1: spherical, ε>1: prolate). The model also accounts for variations in bilayer thickness and liposome size. As the scattering data of the Pad-PC-Pad liposomes at the temperature of 35° C. could not be approximated satisfactorily by means of the ellipsoidal shell, the inventors included disks with a homogeneous cross-section—an approach motivated by the cryo-TEM results. Together with the experimental data of the Pad-PC-Pad liposomes at three selected temperatures, the obtained fits are represented in FIG. 23.
The inventors recognised that the inhomogeneity of the liposomal formulations, except for Pad-PC-Pad, concerning the shape and size of the artificial lipids in this study only allows for the reasonable fitting of the q-range, which corresponds to bilayer thickness. For this purpose, the inventors applied an extended Guinier law (Hjelm et al., The Journal of Physical Chemistry B 2000, 104 (2), 197-211; Fratzl, Journal of Statistical Physics 1994, 77 (1-2), 125-143), which yields the thickness of the bilayer. To account for possible multi-lamellarity, the inventors included a para-crystalline stacking model (Schwartz et al., Biophysical journal 1975, 15 (12), 1201-1233; FruÈhwirth et al., Journal of Applied Crystallography 2004, 37 (5), 703-710) as a structure factor.
SANS measurements were performed at the SANS-I beamline at the Swiss Spallation Neutron Source SINQ facility (Paul Scherrer Institute, Villigen, Switzerland). The samples were loaded into 2 mm-path length, boron-free quartz glass cells and mounted in a temperature-controlled holder. This system allows for controlling the temperature of the specimen with an accuracy better than 1 K. The liposomal suspensions were measured between 22 and 42° C. in 3 to 4 K steps. Subsequently, the suspensions were cooled down to room temperature (22° C.) and measured again. Three detector distances, i.e. 1.6, 6.0 and 18.0 m, were used to collect data over the range of scattering vectors 0.01 nm^−1<q<10 nm^−1 at the neutron wavelengths (A) […]. Data were collected with a two-dimensional ^3He-detector with an array of 128×128 pixels and reduced to one-dimensional I(q) scattering curves, thus radially averaging the two-dimensional images. The data were corrected for transmission, background scattering and detector efficiency according to a standard procedure using the BerSANS software package (Keiderling, Applied Physics A 2002, 74 (1), s1455-s1457; Strunz et al., Journal of Applied Crystallography 2000, 33 (3 Part 1), 829-833).
The SANS data were analysed using SASfit software (Breßler et al., Journal of Applied Crystallography 2015, 48 (5), 1587-1598) and corresponding models. A Pad-PC-Pad sample was fitted over the entire measured q-range, whereas we restricted the fit for the other samples to the q-range, which corresponds to lipid bilayer thickness. For Pad-PC-Pad, the inventors used an ellipsoidal shell model with a homogeneous cross-section (Guinier, Annales de Physique, 1939; pp 161-237) and size distributions in terms of both thickness and radius. […]

[4] = reported previously; cited from earlier work
[5] = 22 ° C. (after cooling down to room temperature)
[6] = 35 ° C., contribution for disks accounted for
[7] = LUVs, heating and cooling rates of 0.5° C./min

CCCCCCCCCCCCCCCC(=O)NCC(CNC(=O)CCCCCCCCCCCCCCC)OP(=O)([O-])OCC[N+](C)(C)C [Pad-PC-Pad, 1,3-palmitoylamido-1,3-deoxy-sn-glycero-2-phosphatidylcholine]
Release at 37° C. after 2 h [1]: 100%
release at 37° C. without vortexing [1]: 100%
release at 37° C. without vortexing ([1]; listed as 1,3-palmitoylamido-1,3-deoxy-sn-glycero-2-phosphatidylcholine): immediate full release
Release at RT after 60 s vortex [1]: 43.4%
Release 37° C. after 60 s vortex [1]: 100%
Release at RT after 7 days [1]: 15.5%
Tm [2]: 37 °C
Bilayer thickness ([3]; 22 ° C.): 3.46 ± 1.07 nm
Eccentricity ([3]; 22 ° C.): 0.35
Radius ([3]; 22 ° C.): 69.96 ± 19.05 nm
Bilayer thickness [3, 5]: 4.18 ± 0.70 nm
Eccentricity [3, 5]: 0.04
Radius [3, 5]: 70.41 ± 31.77 nm
Bilayer thickness ([3]; 25 ° C.): 3.38 ± 0.94 nm
Eccentricity ([3]; 25 ° C.): 0.35
Radius ([3]; 25 ° C.): 66.22 ± 21.15 nm
Bilayer thickness ([3]; 28 ° C.): 3.34 ± 0.91 nm
Eccentricity ([3]; 28 ° C.): 0.32
Radius ([3]; 28 ° C.): 69.96 ± 16.31 nm
Bilayer thickness ([3]; 32 ° C.): 3.37 ± 0.89 nm
Eccentricity ([3]; 32 ° C.): 0.31
Radius ([3]; 32 ° C.): 69.90 ± 15.93 nm
Bilayer thickness [3, 6]: 3.42 ± 0.88 nm
Eccentricity [3, 6]: 0.88
Radius [3, 6]: 64.91 nm
Bilayer thickness ([3]; 39 ° C.): 3.37 ± 0.76 nm
Eccentricity ([3]; 39 ° C.): 0.04
Radius ([3]; 39 ° C.): 71.96 ± 5.40 nm
Bilayer thickness ([3]; 42 ° C.): 3.57 ± 0.74 nm
Eccentricity ([3]; 42 ° C.): 0.05
Radius ([3]; 42 ° C.): 71.35 ± 5.01 nm
increase in bilayer thickness after the heating cycle ([3]; temperature cycle to 42° C. including cooling to room temperature): 21%
Tm, main phase transition temperature [4]: 37 °C

CCCCCCCCCCCCCCCC(=O)OC[C@H](COP(=O)([O-])OCC[N+](C)(C)C)OC(=O)CCCCCCCCCCCCCCC [DPPC, 1,2-dipalmitoyl-sn-glycero-3-phosphocholine]
Release at 37° C. after 2 h [1]: 12.2%
Release at RT after 60 s vortex [1]: 1.1%
Release 37° C. after 60 s vortex [1]: 17.9%
Release at RT after 7 days [1]: 4.5%
Tm [2]: 41 °C
most probable bilayer thickness ([3]; 22 ° C.): 4.59 nm
most probable bilayer thickness [3, 5]: 4.67 nm
most probable bilayer thickness ([3]; 25 ° C.): 4.58 nm
most probable bilayer thickness ([3]; 28 ° C.): 4.62 nm
most probable bilayer thickness ([3]; 32 ° C.): 4.61 nm
most probable bilayer thickness ([3]; 35 ° C.): 4.61 nm
most probable bilayer thickness ([3]; 39 ° C.): 4.65 nm
most probable bilayer thickness ([3]; 42 ° C.): 4.65 nm
Tm, main phase transition temperature [4]: 41 °C

CCCCCCCCCCCCCCCCC(=O)NCC(CNC(=O)CCCCCCCCCCCCCCCC)OP(=O)([O-])OCC[N+](C)(C)C [Rad-PC-Rad, 1,3-diheptadecanamidopropan-2-yl (2-(trimethylammonio)ethyl) phosphate]
Release at 37° C. after 2 h [1]: 6%
Release at RT after 60 s vortex [1]: 24% and 23.8%
Release 37° C. after 60 s vortex [1]: 34%
Release at RT after 7 days [1]: 9% and 9.4%
change in enthalpy at main phase transition [2, 7]: 5.774 kcal/mol
main phase transition temperature [2, 7]: 44.7 °C
Tm [2]: 45 °C
most probable bilayer thickness ([3]; 22 ° C.): 4.55 nm
most probable bilayer thickness [3, 5]: 4.45 nm
most probable bilayer thickness ([3]; 25 ° C.): 4.57 nm
most probable bilayer thickness ([3]; 28 ° C.): 4.55 nm
most probable bilayer thickness ([3]; 32 ° C.): 4.51 nm
most probable bilayer thickness ([3]; 35 ° C.): 4.45 nm
most probable bilayer thickness ([3]; 39 ° C.): 4.35 nm
most probable bilayer thickness ([3]; 42 ° C.): 4.4 nm
thermal stability of liposomes ([3]; temperature range between 22 and 42° C.): thermally stable up to 42 °C
Tm, main phase transition temperature [4]: 45 °C
